{"source": "patent US20240115742A1", "about": "“FLUORINATED FIBERS FOR MULTIMODAL 1H AND 19F MRI, ULTRASOUND, FLUORESCENCE DETECTION AND CONFORMATIONAL AND TEMPERATURE DETECTION BY 19F MRS” (New York University, priority 2022, published 2024)", "key": {"[1]": {"experiment": "Fluorescence recovery after photobleaching (FRAP)", "conditions": "one-phase association fit", "experimental": "Protein fibrils are capable of blue autofluorescence as a result of protein self-assembly. Fluorescent recovery after photobleaching (FRAP) is measured by photobleaching using a 405 nm laser and measuring the spot intensity over time. This behavior was previously confirmed in the Q protein in a recent characterization. Using the correlation between autofluorescence and fibrilization, the relative autofluorescence of the coiled-coil protein hydrogels was measured. […] To assess the relative laser response, hydrogels were subjected to FRAP imaging using two 100% intensity bleaches at 405 nm excitation followed by imaging at 2 second frame intervals (FIG. 53c).\nConfocal Imaging and Fluorescence Recovery After Photobleaching (FRAP). FRAP experiments were performed with a Stellaris 8 Falcon laser scanning confocal microscope on an inverted DMi8 CS stand equipped with 63X NA 1.4 lens. Images were taken with a laser at 405 nm excitation. A pre-bleach image was taken followed by two bleach images using 100% laser intensity for 1.5 s. Following, 41 images were taken post-bleach at 2 s intervals. To measure recovery, FIJI (version 2.3.0) was used to automate background and recovery imaging following photobleaching. Independent background intensities were fit to a one-phase decay equation in GraphPad Prism. Background loss, as a result of photobleaching, from fit values were added to spot intensity values before being fit to a one-phase association equation in GraphPad Prism."}, "[2]": {"experiment": "Curcumin binding by fluorescence spectroscopy", "conditions": "15 μM protein, 1% v/v DMSO", "experimental": "Drug Binding. Protein variants were bound to curcumin (CCM) in increasing CCM:protein ratios at 1:1 to 10:1. Protein was diluted to a final concentration of 15 μM before CCM solubilized in DMSO was added to the protein sample at a final 1% v/v DMSO. Samples were incubated on a thermomixer for 30 min at 300 rpm in the dark at 4° C. Samples were then removed and 300 μL of each sample was added to a 96-well solid black plate. Protein variants were excited at 420 nm and emission was read at 520 nm using a BioTek Synergy H1 microplate reader at RT. The baseline spectra of CCM, at 15-150 μM in 50 mM PB pH 4.0 containing 1% v/v DMSO, was subtracted from the fluorescence intensities of the protein-CCM at corresponding concentrations. Resulting normalized relative fluorescence intensities were analyzed using Specific binding kinetics in GraphPad Prism (GraphPad Software).\nCurcumin Binding. CCM was bound to Q2LTF. […] Samples were loaded onto a 96-well black plate and excited at 420 nm and emission was read at 520 nm using a BioTek Synergy H1 microplate reader at room temperature (RT). Normalized relative fluorescence intensities were calculated and analyzed in Graphpad Prism (GraphPad Software). Binding affinity was calculated using the specific binding kinetics equation."}, "[3]": {"experiment": "Passive microrheology (multiple particle tracking)", "type": "physicochemical", "conditions": "4 °C", "experimental": "Microrheology. Protein was concentrated to 2 mM, as measured by BCA assay, and immediately aliquoted 27.7 μL into a 200 μL PCR tube. 1% v/v (or 0.3 μL) of […] red polystyrene fluorometric beads (FluoSpheres) were then added to the sample. A glass capillary tube was then loaded with sample by capillary action and sealed to prevent evaporation while being affixed to a microscopy slide using two-component fast-curing epoxy (JB Weld). Samples were then imaged at 0 h as a starting measurement and then every 12 h using a Leica DMI4000b inverted microscope equipped with a Leica DFC310 FX 1.4 megapixel camera at 40× magnification with 2×2 binning. […] Each image series was recorded for a total of 300 frames with a lag time (i) of 0.037 s between each frame. Relaxation exponents i.e. the logarithmic slopes of particle mean-squared displacements (MSDs) with respect to lag time as determined by multiple particle tracking (MPT) analysis were used to determine when equilibration of the hydrogel was complete and measurements were no longer recorded (60 h in this case). […]\nGelation kinetics of the hydrogels were assessed using passive microrheology (FIG. 61a-e). Time to gelation was measured immediately after concentration to 2 mM at 4° C. by incubating with 1 μm fluorescent tracer beads added to the protein in solution state at a final concentration of 1% (v/v). […]"}, "[4]": {"conditions": "Q as previously described; cited from earlier work"}, "[5]": {"conditions": "measured in Q previously; cited from earlier work"}, "[6]": {"conditions": "previous studies, cited from earlier work"}, "[7]": {"conditions": "10 Hz, Q as reported previously; cited from earlier work"}}, "note": "Values joined by “and” are separate entries in the source; they are usually repeats but may differ in a detail not shown here. Equal entries are not always repeated. Where two headings read alike, the source gives them in different places. Square brackets hold non-standard residues; d marks the D form. Ends that are not written are not given here. LTF = trifluoroleucine", "data": [{"substance": "Q2: coiled-coil protein redesigned from Q for reduced lateral assembly, SEQ ID NO: 11 (MRGSHHHHHHGSIEGRVKELLFLKKTAEQMLEELKETNKALHDVRHLLENQSKL) [Protein Q2]", "values": [{"measurement": "Halftime", "setting": "[1]", "result": 11.1, "unit": "s"}, {"measurement": "K", "setting": "[1]", "result": 0.1, "unit": "s⁻¹"}, {"measurement": "Tau", "setting": "[1]", "result": 16.0, "unit": "s"}]}, {"substance": "Q2LTF: protein-engineered fluorinated coiled-coil fiber, Q2 with trifluoroleucine, SEQ ID NO: 20 (MRGSHHHHHHGSIEGRVKE[LTF][LTF]F[LTF]KKTAEQM[LTF]EE[LTF]KETNKA[LTF]HDVRH[LTF][LTF]ENQSK[LTF]; ends and bridges not checked) [Protein Q2LTF]", "values": [{"measurement": "Kd", "setting": "[2]", "result": "0.06 μM:μM [protein:CCM]"}]}, {"substance": "Q3: Q variant with V44I pore mutation, SEQ ID NO: 12 (MRGSHHHHHHGSIEGRVKEILFLKNTAYQMLLELKETNEALYDIRHLLQQQSKL) [Protein Q3]", "values": [{"measurement": "Halftime", "setting": "[1]", "result": 34.8, "unit": "s"}, {"measurement": "K", "setting": "[1]", "result": 0.0, "unit": "s⁻¹"}, {"measurement": "Tau", "setting": "[1]", "result": 50.1, "unit": "s"}]}, {"substance": "Q5: Q hydrogel variant from Rosetta Monte Carlo search, SEQ ID NO: 14 (MRGSHHHHHHGSIEGRVKEITFIKKTIEQIAEEMKEINKAIHDIRHALENISKK) [Protein Q5]", "values": [{"measurement": "time to complete gelation (sol-gel transition)", "setting": "[3]", "result": "≤ 24", "unit": "h"}, {"measurement": "Halftime", "setting": "[1]", "result": 12.3, "unit": "s"}, {"measurement": "K", "setting": "[1]", "result": 0.1, "unit": "s⁻¹"}, {"measurement": "Tau", "setting": "[1]", "result": 17.7, "unit": "s"}]}, {"substance": "Q: rationally designed pentameric coiled-coil derived from C, SEQ ID NO: 23 (MRGSHHHHHHGSIEGRVKEITFLKNTAPQMLRELQETNAALQDVRELLRQQSKL) [reference compound]", "values": [{"measurement": "UCST", "setting": "[4]", "result": "~16 °C and 16.2 °C"}, {"measurement": "protofibril diameter", "setting": "[5]", "result": "3.5±0.5", "unit": "nm"}, {"measurement": "melting temperature", "setting": "[6]; 50 mM Na2HPO4 pH 4.0", "result": 55.3, "unit": "°C"}, {"measurement": "melting temperature", "setting": "[6]; 50 mM Na2HPO4 pH 10.0", "result": 46.4, "unit": "°C"}, {"measurement": "Halftime", "setting": "[1]", "result": 9.9, "unit": "s"}, {"measurement": "K", "setting": "[1]", "result": 0.1, "unit": "s⁻¹"}, {"measurement": "Tau", "setting": "[1]", "result": 14.3, "unit": "s"}, {"measurement": "storage modulus G′", "setting": "[7]", "result": "50.4 Pa and 50 Pa"}]}]}
